Here are results for 24 molecules from ChEMBL document CHEMBL3091439, “Further discovery of caffeic acid derivatives as novel influenza neuraminidase inhibitors” (Bioorg Med Chem, 2013).

In data set [1] the target is T1, Neuraminidase (Influenza A virus, UniProt B4URF0). Kind of data set: Inhibition of Influenza A virus (A/Chicken/Shandong/LY/08(H9N2)) neuraminidase using 4-MU-NANA as substrate incubated for 5 mins prior to substrate addition measured after 30 to 60 mins by fluorescence assay. On the set-up: species or system Influenza A virus (A/chicken/Shandong/LY/2008(H9N2)).

In data set [2] the target is T1, Neuraminidase. Kind of data set: Inhibition of influenza A virus A/duck/China/QJ/01(H5N1) neuraminidase using 4-MU-NANA as substrate incubated for 5 mins prior to substrate addition measured after 30 to 60 mins by fluorescence assay.
Data set [3] has as its system Influenza A virus. Kind of data set: Antiviral activity against Influenza A virus (A/Chicken/Shandong/LY/08(H9N2)) infected in chicken embryo fibroblasts assessed as protection against virus-induced cytopathic effect preincubated for 1 hr followed by viral-infection measured after 2 days by MTS assay. Format: functional, organism-based, Influenza A virus (A/chicken/Shandong/LY/2008(H9N2)). For orientation: Damage to the host cells serves as the signal in cytopathic effect assays.

A short description of data set [4]: Cytotoxicity against chicken embryo fibroblasts infected with Influenza A virus (A/Chicken/Shandong/LY/08(H9N2)) preincubated for 1 hr followed by viral-infection measured after 2 days by MTS assay. The data set is classed as cell-based, Gallus gallus, Fibroblast. In general terms: Tetrazolium assays rely on reduction of a dye to a coloured formazan, in cell work by metabolically active cells.

The target in data set [5] is T1, Neuraminidase. Kind of data set: Non competitive inhibition of influenza A virus A/duck/China/QJ/01(H5N1) neuraminidase using 4-MU-NANA as substrate incubated for 5 mins prior to substrate addition measured after 30 to 60 mins by Lineweaver-Burk plot analysis.
The target in data set [6] is T1, Neuraminidase. Nature of the data set: Non competitive inhibition of Influenza A virus (A/Chicken/Shandong/LY/08(H9N2)) neuraminidase using 4-MU-NANA as substrate incubated for 5 mins prior to substrate addition measured after 30 to 60 mins by Lineweaver-Burk plot analysis. On the set-up: species or system Influenza A virus (A/chicken/Shandong/LY/2008(H9N2)).

The IC50 is the point on the concentration scale where inhibition reaches its midpoint. Read a high IC50 as a need for much substance. A word on the EC50: it is the concentration needed to bring the measured effect to its halfway point. By CC50 is commonly meant the concentration at which the toxic effect on the cells reaches its halfway point. The low end stands for harm at low concentration, the high end for better tolerance by the cells. The term Ki denotes a dissociation constant, usually derived from enzyme kinetics or from competition with a known ligand. A high value points to lower affinity.

Bounds are passed on as bounds.

`CCC(CC)C(=O)Nc1cc(NS(=O)(=O)c2ccc(C)cc2)ccc1OCC(=O)O`: the results for the 50% inhibitory concentration (IC50) in data set [1] and in data set [2] were 78.6 µM and 86.7 µM, respectively.

Consider `CCC(CC)C(=O)Nc1cc(NC(C)=O)c(NC(=N)N)cc1OCC(=O)O`, for which the IC50 in data set [1] is 69.1 µM; in data set [2], 75.8 µM.

With `CCC(CC)C(=O)Nc1ccc(OCC(=O)O)c(NC(=O)C(CC)CC)c1`, in data set [1], the IC50 is greater than 100 µM.

With `CCC(CC)CN(C(=O)/C=C/c1ccc(O)c(O)c1)c1ccc(OCC(=O)O)c(NC(=O)C(CC)CC)c1`, in data set [3], the EC50 worked out at 56.4 µM. In addition, the results for the IC50 in data set [1] and in data set [2] were 25.2 µM and 11.3 µM, respectively. The molecule also returned a CC50 at 48 h in data set [4] greater than 100 µM.

Regarding `CCC(CC)C(=O)Nc1cc(N(Cc2cccs2)C(=O)/C=C/c2ccc(O)c(O)c2)ccc1OCC(=O)O`, the IC50 in data set [1] came out at 24.1 µM; in data set [2], 16.4 µM. For the same molecule, the CC50 at 48 h in data set [4] was 87.6 µM.

`CCC(CC)C(=O)Nc1cc(NC(=O)NCc2ccccc2)ccc1OCC(=O)O`: the IC50 in data set [1] came out at 49.7 µM; in data set [2], 55.6 µM.

As to `CCC(CC)C(=O)Nc1cc(NC(=O)[C@H](C)NC(=O)/C=C/c2ccc(O)c(O)c2)ccc1OCC(=O)O`, in data set [3], the EC50 is 25.4 µM. In data set [5], this molecule had a Ki of 9.5 µM. The IC50 in data set [1] was found to be 7.9 µM; in data set [2], 16.1 µM. This molecule displayed a CC50 at 48 h in data set [4] greater than 100 µM.

Consider `CCC(CC)C(=O)Nc1cc(NC(=O)CNC(=O)/C=C/c2ccc(O)c(O)c2)ccc1OCC(=O)O`, for which the EC50 in data set [3] was found to be 33.6 µM. The IC50 in data set [1] is 9.2 µM; in data set [2], 17.6 µM. In data set [4], this molecule gave a CC50 at 48 h greater than 100 µM.

In the case of `CCC(CC)C(=O)Nc1cc(NC(C)=O)c(NC(=O)CCc2ccc(O)c(O)c2)cc1OCC(=O)O`, the IC50 is 15.8 µM in data set [1] and 42.7 µM in data set [2]. The same molecule registered a CC50 at 48 h in data set [4] of 47.2 µM.

With `CCC(CC)C(=O)Nc1cc(NC(C)=O)c(N)cc1OCC(=O)O`, the IC50 came out at 46.4 µM in data set [1] and 58.5 µM in data set [2].

For `CCC(CC)C(=O)Nc1cc(NC(=O)[C@H](CC(C)C)NC(=O)/C=C/c2ccc(O)c(O)c2)ccc1OCC(=O)O`, the EC50 in data set [3] amounted to 13.5 µM. Besides, the values for the IC50 in data set [1] and in data set [2] were 8.5 µM and 14 µM, respectively. In data set [4], the half-maximal cytotoxic concentration (CC50) at 48 h amounted to 89.7 µM.

In the case of `CCC(CC)C(=O)Nc1cc(NC(=O)C(C)C)c(NC(=N)N)cc1OCC(=O)O`, the IC50 in data set [1] was found to be 83.2 µM.

Consider `CCC(CC)C(=O)Nc1cc(NC(=O)[C@H](Cc2ccccc2)NC(=O)/C=C/c2ccc(O)c(O)c2)ccc1OCC(=O)O`, for which the IC50 is 9.8 µM in data set [1] and 16.2 µM in data set [2]. It took 68.3 µM to reach half-maximal cytotoxicity in data set [4] (CC50 at 48 h).

For `CCC(CC)C(=O)Nc1cc(N(Cc2ccccc2)C(=O)/C=C/c2ccc(O)c(O)c2)ccc1OCC(=O)O`, in data set [5], the Ki amounted to 32.5 µM. Besides, the 50% inhibitory concentration (IC50) in data set [1] was 16 µM; in data set [2] it was 11.4 µM. This molecule also came in with a CC50 at 48 h in data set [4] of 78.2 µM.

As for `CCC(CC)C(=O)Nc1cc(NC(=O)C(C)C)c(NC(=O)/C=C/c2ccc(O)c(O)c2)cc1OCC(=O)O`, the EC50 in data set [3] came out at 14.5 µM. The values for the IC50 in data set [1] and in data set [2] were 5.8 µM and 14.2 µM, respectively. In addition, the CC50 at 48 h in data set [4] was greater than 100 µM.

On to `C#CCNC(=O)Nc1ccc(OCC(=O)O)c(NC(=O)C(CC)CC)c1`, for which the IC50 in data set [1] was 89.8 µM.

For `CCC(CC)C(=O)Nc1cc(NC(=O)c2ccco2)ccc1OCC(=O)O`, the IC50 in data set [1] was greater than 100 µM.

Turning to `CCC(CC)C(=O)Nc1cc(NC(=O)[C@@H](NC(=O)/C=C/c2ccc(O)c(O)c2)C(C)C)ccc1OCC(=O)O`, the EC50 in data set [3] amounted to 22.9 µM. Besides, the IC50 is 9.4 µM in data set [1] and 16.6 µM in data set [2]. Moreover, the CC50 at 48 h in data set [4] stood at 70.4 µM.

For `CCC(CC)C(=O)Nc1cc(NC(=O)C(C)C)c(NC(=O)CCc2ccc(O)c(O)c2)cc1OCC(=O)O`, the IC50 in data set [1] was found to be 14.2 µM; in data set [2] it was 38.2 µM.

In data set [1], `CCC(CC)C(=O)Nc1cc(N)ccc1OCC(=O)O` registered an IC50 greater than 100 µM.

With `CCC(CC)C(=O)Nc1cc(NC(=O)C(C)C)c(N)cc1OCC(=O)O`, the IC50 was determined as 54.3 µM in data set [1] and 61.2 µM in data set [2].

Regarding `CCC(CC)C(=O)Nc1cc(NC(C)=O)c(NC(=O)/C=C/c2ccc(O)c(O)c2)cc1OCC(=O)O`, the concentration giving a half-maximal response (EC50) in data set [3] was 13.8 µM. The IC50 in data set [1] came out at 3.2 µM; in data set [2] it was 10.7 µM. In data set [6], this molecule returned a Ki of 2.7 µM. The CC50 at 48 h in data set [4] is greater than 100 µM.

As for `CCC(CC)C(=O)Nc1cc(NC(=O)N[C@H](CC)CO)ccc1OCC(=O)O`, in data set [1], the IC50 is greater than 100 µM.

Turning to `CCC(CC)C(=O)Nc1cc(NC(=N)N)ccc1OCC(=O)O`, the IC50 in data set [1] was greater than 100 µM.
